From ChEMBL document CHEMBL1128830, “Synthesis and antibacterial activity of FR21818, a new, potent 1-methylcarbapenem” (1995)
Values after ≈ are worked out from the molar mass of the structure shown.

What was measured:
Staphylococcus aureus [1] = assay: Minimum inhibitory concentration required for antibacterial activity against Staphylococcus aureus 209P JC-1; assay type: functional
Mus musculus = assay: […] percent urinary recovery in mice after subcutaneous administration at a dose of 20 mg/Kg; assay type: functional, organism-based; details: Urine
Proteus vulgaris = assay: Minimum inhibitory concentration required for antibacterial activity against Proteus vulgaris IAM 1025; assay type: functional
Pseudomonas aeruginosa = assay: Minimum inhibitory concentration required for antibacterial activity against Pseudomonas aeruginosa 26; assay type: functional
[2] = molecular target: T1, Dipeptidase 1 (Homo sapiens) (UniProt P16444); assay: In vitro renal dehydropeptidase I (DHP-I) stability relative to meropenem
T1 sequence (whole entry): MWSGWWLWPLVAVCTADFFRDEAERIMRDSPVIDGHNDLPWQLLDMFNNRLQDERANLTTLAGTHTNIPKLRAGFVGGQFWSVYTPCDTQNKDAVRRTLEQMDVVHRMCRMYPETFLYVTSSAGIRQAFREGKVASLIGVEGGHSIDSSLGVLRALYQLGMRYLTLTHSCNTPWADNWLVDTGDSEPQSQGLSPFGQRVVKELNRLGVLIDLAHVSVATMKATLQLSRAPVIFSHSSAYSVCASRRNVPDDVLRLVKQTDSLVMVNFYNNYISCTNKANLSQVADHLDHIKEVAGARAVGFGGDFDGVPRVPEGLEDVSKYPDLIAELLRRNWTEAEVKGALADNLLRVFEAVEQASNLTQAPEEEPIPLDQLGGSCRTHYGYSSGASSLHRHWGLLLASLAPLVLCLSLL

Staphylococcus aureus [3] = assay: Minimum inhibitory concentration required for antibacterial activity against methicillin-resistant Staphylococcus aureus 3004; assay type: functional
Escherichia coli = assay: Minimum inhibitory concentration required for antibacterial activity against Escherichia coli NIHJ JC-2; assay type: functional

With C[C@@H](O)[C@H]1C(=O)N2C(C(=O)O)=C(S[C@@H]3CN[C@H](Cc4cc[n+](CCO)n4C)C3)[C@H](C)[C@H]12.[Cl-] the MIC (Staphylococcus aureus [1]) was 0.05 µg/mL, the Recovery (Mus musculus) was 68.9% and the MIC (Proteus vulgaris) was 1.56 µg/mL. The MIC (Pseudomonas aeruginosa) was 0.2 µg/mL, the Stability [2] was 26% and the MIC (Staphylococcus aureus [3]) was 6.25 µg/mL. For the same molecule, the MIC (Escherichia coli) was 0.2 µg/mL.

For C[C@@H](O)[C@H]1C(=O)N2C(C(=O)[O-])=C(SC3Cn4cnc[n+]4C3)[C@H](C)[C@H]12 (stereo partly specified) [BIAPENEM], the MIC (Staphylococcus aureus [1]) was 0.1 µg/mL (≈ 0.285 µM), the Recovery (Mus musculus) was 70.7% and the MIC (Proteus vulgaris) was 3.13 µg/mL (≈ 8.93 µM). For the same molecule, the MIC (Pseudomonas aeruginosa) was 0.2 µg/mL (≈ 0.571 µM), the Stability [2] was 15.4% and the MIC (Staphylococcus aureus [3]) was 25 µg/mL (≈ 71.3 µM). It also gave an MIC (Escherichia coli) of 0.39 µg/mL (≈ 1.11 µM).

For C[C@@H](O)[C@H]1C(=O)N2C(C(=O)O)=C(S[C@@H]3CN[C@H](C(=O)N(C)C)C3)[C@H](C)[C@H]12 [MEROPENEM], the MIC (Staphylococcus aureus [1]) was 0.1 µg/mL (≈ 0.261 µM), the Recovery (Mus musculus) was 25% and the MIC (Proteus vulgaris) was 0.1 µg/mL (≈ 0.261 µM). The MIC (Pseudomonas aeruginosa) was 0.2 µg/mL (≈ 0.522 µM), the Stability [2] was 100% and the MIC (Staphylococcus aureus [3]) was 25 µg/mL (≈ 65.2 µM). For the same molecule, the MIC (Escherichia coli) was < 0.025 µg/mL.
